We go through 104 molecules from PubChem BioAssay AID1996.

The solubility (kinetic) is solubility judged after dilution from a stock solution rather than from solid.

In brackets after ≈: the same amount, converted by molar mass.

For the data set the following is noted: buffer; pH 7.4; 200.0 µM.
`O=C(Cc1c[nH]c2ccccc12)NCc1ccco1` had a kinetic solubility greater than 38.1 µg/mL.
`Cc1ccc(S(=O)(=O)N2CCN(Cc3cccnc3)CC2)cc1` had a solubility (kinetic) greater than 49.7 µg/mL.
With `Cc1ccc(Cl)cc1NC(=O)N[C@@H](CC(C)C)C(=O)O`, the kinetic solubility turned out to be 43.8 µg/mL (≈ 147 µM).
As to `CCOC(=O)c1csc(NC(=O)CN2CCOCC2)n1`, the solubility (kinetic) was greater than 44.9 µg/mL.
`Nc1c(Br)cc(Br)cc1CNC1CCC(O)CC1` (centres undefined): the solubility (kinetic) was greater than 56.7 µg/mL.
As for `Cl.O=C(CN1CCCCC1)Nc1cccc(Cl)c1`, the solubility (kinetic) stood at 33.6 µg/mL.
`CC(OC(=O)c1cc(S(=O)(=O)N2CCOCC2)ccc1F)C(=O)NCC1CCCCC1` (centres undefined): the kinetic solubility was greater than 68.5 µg/mL.
The same measure for `CN(C)S(=O)(=O)c1ccc(C(=O)OCC(=O)NC(=O)NC2CCCC2)cc1`: 7.9 µg/mL (≈ 19.9 µM).
Turning to `COCCCNC(=O)C1CCN(c2ccc(N3CCOCC3)nn2)CC1`, the solubility (kinetic) was greater than 54.5 µg/mL.
For `COc1ccc2cc(C3OCCO3)c(Cl)nc2c1` the value was 32.1 µg/mL (≈ 121 µM); for `CC(C)(C)c1csc(NC(=O)CCc2ccccc2)n1`, 2.1 µg/mL (≈ 7.28 µM); for `Cc1ccccc1NC(=S)N/N=C/c1ccc(O)cc1O`, greater than 45.2 µg/mL.
`CC(C)c1ccc(N(CC(=O)N2CCN(Cc3ccccc3)CC2)S(C)(=O)=O)cc1` yielded a solubility (kinetic) of 40.5 µg/mL (≈ 94.3 µM).
On to `CCOc1ccc(OCCC(=O)Nc2ccc(F)cc2C)cc1`, for which the kinetic solubility stood at 5 µg/mL (≈ 15.8 µM).
For the molecule `CC(C)NC(=O)c1ccc(N(Cc2ccccc2)S(C)(=O)=O)cc1`, the solubility (kinetic) came to 11.1 µg/mL (≈ 32 µM).
Molecule `CCOC(=O)Cc1csc(NC(=O)c2cccc(Cl)c2)n1` had a kinetic solubility of 6.9 µg/mL (≈ 21.2 µM).
Take `CC1=CCC(C(=O)O)C(C(=O)Nc2ccc(-c3nc4ccc(C)cc4s3)cc2)C1` (centres undefined): the kinetic solubility is greater than 61 µg/mL.
The same measure for `O=C(NN=C1CCCCCCC1)c1ccc(F)cc1`: greater than 39.3 µg/mL; for `Cn1c(=O)c2sccc2n(Cc2cccc(Br)c2)c1=O`: 1.4 µg/mL (≈ 3.99 µM); for `C[C@@H](C(=O)Nc1nc2ccccc2s1)N1C(=O)C2CC=CCC2C1=O` (some centres undefined): 45.2 µg/mL (≈ 127 µM).
On to `CCN(CC)S(=O)(=O)c1ccc(NC(=O)c2cc(=O)[nH]c3ccccc23)cc1`, for which the kinetic solubility worked out at 3.9 µg/mL (≈ 9.76 µM).
The same measure for `O=C1C2C3C=CC(C3)C2C(=O)N1c1cccc2ccccc12` (centres undefined): 22.9 µg/mL (≈ 79.1 µM).
For the molecule `Cc1ccc(C)c(NC2=C(Cl)C(=O)OC2OC(C)C)c1` (centres undefined), the solubility (kinetic) is 10.8 µg/mL (≈ 36.5 µM).
The same measure for `Cc1ccc(CC(=O)N2CCN(C(=O)C3CCCO3)CC2)cc1` (centres undefined): 43.2 µg/mL (≈ 137 µM).
`Oc1cccc(C=Nc2cccc3ccccc23)c1O` showed a kinetic solubility of 18.3 µg/mL (≈ 69.5 µM).
`CC(OC(=O)c1ccco1)C(=O)Nc1ncc(Cl)cc1Cl` (centres undefined): the kinetic solubility came out at 49.2 µg/mL (≈ 149 µM).
`CCOC(=O)Cc1ccc(NC(=O)c2cccc([N+](=O)[O-])c2)cc1` had a solubility (kinetic) of 2.6 µg/mL (≈ 7.92 µM).
`NC(=O)CCS(=O)(=O)c1ccc(Cl)cc1` registered a kinetic solubility greater than 37.2 µg/mL.
In the case of `O=C(O)CNC(=S)N(Cc1ccccc1Cl)C1CCCCC1`, the kinetic solubility was found to be 49.1 µg/mL (≈ 144 µM).
For `O=[N+]([O-])c1ccc2cn[nH]c2c1` the value was greater than 24.5 µg/mL; for `CC1(C)CC2(C)OC(=N)C1(C#N)C2(C#N)C#N` (centres undefined), 34 µg/mL (≈ 149 µM).
The same measure for `C=C1C(C(=O)Nc2ccccc2)C1C(=O)Nc1ccccc1` (centres undefined): less than 0.3 µg/mL.
`CC1CCc2sc(C(=O)Nc3ccc(C(N)=O)cc3)cc2C1` (centres undefined) had a solubility (kinetic) of 3.4 µg/mL (≈ 10.8 µM).
On to `COc1ccc(CNC(=O)C(=O)NCc2cccnc2)cc1`, for which the solubility (kinetic) stood at 20.9 µg/mL (≈ 69.8 µM).
For `COc1cccc(N=Cc2nc(-c3ccccc3)oc2OC(C)=O)c1` the value was 10.1 µg/mL (≈ 30 µM); for `COc1ccc(Cl)cc1NC(=O)CSc1cccc[n+]1[O-]`, greater than 48.7 µg/mL.
With `Cc1cc(C(=O)Nc2ccc(C#N)cc2)on1`, the kinetic solubility was determined as 10.3 µg/mL (≈ 45.3 µM).
Molecule `Cc1ccccc1N1CCN(CCC(=O)Nc2ccc(F)cc2)CC1` had a kinetic solubility of 39.9 µg/mL (≈ 117 µM).
Consider `CCNC(=O)c1ccc(=O)n(Cc2ccc(Cl)cc2Cl)c1`, for which the kinetic solubility is 39 µg/mL (≈ 120 µM).
Regarding `Cc1cc(C)nc(Nc2nc3ccccc3o2)n1`, the solubility (kinetic) is greater than 36 µg/mL.
For `O=C(COc1ccccc1[N+](=O)[O-])Nc1cccc(S(=O)(=O)N2CCCC2)c1` the value was 3.5 µg/mL (≈ 8.63 µM); for `CC1CCCCC1NC(=O)COc1ccc(C#N)cc1` (centres undefined), greater than 40.9 µg/mL; for `CCOC(=O)C1CCN(CC(O)COCc2ccc(Cl)cc2)CC1.Cl` (centres undefined), 57.5 µg/mL.
For `O=C(c1c(F)cccc1F)N1CCN=C1SCc1ccccc1` the value was 18.5 µg/mL (≈ 55.7 µM); for `O=C(NCCCN1CCOCC1)C(=O)NCCc1ccccc1`, greater than 47.9 µg/mL; for `CNC(=S)NC12CC3CC(CC(C3)C1)C2`, 3.8 µg/mL (≈ 16.9 µM).
For the molecule `NS(=O)(=O)c1ccc(NC(=O)CCCC(=O)O)cc1`, the kinetic solubility was greater than 42.9 µg/mL.
Molecule `COc1ccc(C(=O)C(C)OC(=O)CN2C(=O)c3ccccc3C2=O)cc1` (centres undefined) gave a solubility (kinetic) greater than 55.1 µg/mL.
The molecule `COc1cc2c(C(=O)NCCN(C)C)cn(CC(C)C)c(=O)c2cc1OC` had a kinetic solubility greater than 56.3 µg/mL.
On to `OC(CN1CCN(c2cccc(Cl)c2)CC1)c1ccc(F)cc1` (centres undefined), for which the solubility (kinetic) was determined as 12.2 µg/mL (≈ 36.4 µM).
Molecule `O=C(Nc1ccc(C2SCCS2)cc1)c1ccccc1` gave a kinetic solubility of 1.4 µg/mL (≈ 4.64 µM).
Regarding `O=C(COc1ccccc1)NCCc1cnc[nH]1`, the kinetic solubility was greater than 36.8 µg/mL.
Turning to `O=C(CC1SC(N2CCCCC2)=NC1=O)Nc1ccc(C(=O)NCc2ccccc2)cc1` (centres undefined), the kinetic solubility was found to be 61.3 µg/mL (≈ 136 µM).
The molecule `CCOC(=O)C1=C(C)Nc2ccccc2N=C1N` yielded a solubility (kinetic) greater than 36.8 µg/mL.
For `O=C(O)CC1SC(=Nc2ccc(O)cc2)NC1=O` (centres undefined), the solubility (kinetic) was greater than 39.9 µg/mL.
`O=c1cc(O)c2ccccc2n1Cc1ccccc1` registered a solubility (kinetic) of 31.9 µg/mL (≈ 127 µM).
The same measure for `CC1CCN(C(=O)NC(=O)c2ccc(Cl)cc2)CC1`: greater than 42.1 µg/mL.
`CCN(CC)CC#CCC(O)(c1ccccc1)c1ccccc1` registered a solubility (kinetic) greater than 46.1 µg/mL.
On to `C#CCOc1ccc2c(c1)c(C(C)=O)c(C)n2Cc1ccccc1`, for which the kinetic solubility stood at 1 µg/mL (≈ 3.15 µM).
The same measure for `COc1ccc(CCNC(=O)c2ccc3ccccc3n2)cc1`: 22.2 µg/mL (≈ 72.5 µM); for `COc1ccc(CN(C)CC(=O)NC(=O)NC2CCCCC2)cc1`: greater than 50 µg/mL; for `O=C(Nc1ccccc1Cl)c1ccc(-c2ccccn2)s1`: 0.8 µg/mL (≈ 2.54 µM).
The same measure for `CCc1cc2c(=O)n(CC(=O)NC3CCCCC3)cnc2s1`: 20.5 µg/mL (≈ 64.2 µM); for `NC(=O)c1ccc(=O)n(Cc2ccc(Cl)cc2Cl)c1`: greater than 44.6 µg/mL.
Molecule `CC(C)C(=O)N=c1sc2cccc(F)c2n1C` showed a solubility (kinetic) of 13.2 µg/mL (≈ 52.3 µM).
As for `CC(=O)N1c2ccccc2CCc2ccc([N+](=O)[O-])cc21`, the solubility (kinetic) was greater than 42.3 µg/mL.
Molecule `Fc1ccccc1CN1CCCC(NC2CCC2)C1` (centres undefined) returned a solubility (kinetic) of 36.9 µg/mL (≈ 141 µM).
For the molecule `COC(=O)c1sccc1NC(=O)c1ccccc1C(=O)O`, the kinetic solubility was 39.8 µg/mL (≈ 130 µM).
`CC(=O)C1=C(C)NC(=O)CC1c1ccc(F)cc1` (centres undefined): the kinetic solubility was greater than 37.1 µg/mL.
With `NC(=O)c1ccc[n+](CC(=O)NCc2ccc(Cl)cc2)c1.[Cl-]`, the solubility (kinetic) was greater than 51 µg/mL.
In turn, `Cc1[nH]c(=O)c(C#N)cc1-c1csc(-c2ccccc2)n1` displayed a kinetic solubility of 0.7 µg/mL (≈ 2.39 µM).
The same measure for `Cc1cc(OC(C)C(=O)Nc2cccnc2)ccc1Cl` (centres undefined): 35.8 µg/mL (≈ 123 µM); for `Cc1cnc(C(=O)Nc2ccc(OC(F)(F)F)cc2)cn1`: 2.6 µg/mL (≈ 8.75 µM); for `O=C(C1COc2ccccc2O1)N1CCN(c2ccc([N+](=O)[O-])cc2)CC1` (centres undefined): 7.7 µg/mL (≈ 20.8 µM).
The same measure for `Cc1ccc(S(=O)(=O)N2CCC[C@H]2C(=O)NCc2ccccc2Cl)cc1`: greater than 58.9 µg/mL; for `Cc1ccc(S(=O)(=O)NCC2CCCO2)cc1` (centres undefined): greater than 38.3 µg/mL; for `Cl.NCCCCNCCCN`: 16.4 µg/mL.
In turn, `CCN(CC)S(=O)(=O)c1cc(NC(=O)CSCc2c(C)noc2C)ccc1C` returned a solubility (kinetic) greater than 63.8 µg/mL.
As for `O=C(NCCC(=O)N1CCCCC1)c1ccc(Br)cc1`, the kinetic solubility is greater than 50.9 µg/mL.
Regarding `Cc1ccc(Nc2nc(N)c3ccccc3n2)cc1Cl.Cl`, the solubility (kinetic) turned out to be 22.1 µg/mL.
With `Cl.c1ccc(CN2CCNCC2)nc1`, the kinetic solubility stood at 30.1 µg/mL.
`CS(=O)(=O)N(CC(=O)Nc1ccc(Br)cc1F)C1CCCCC1` had a kinetic solubility greater than 61.1 µg/mL.
For `CC(C)NC(=O)NC(=O)CSc1ncccn1` the value was greater than 38.1 µg/mL; for `CCOc1ccc(NC(=S)NCc2cccnc2)cc1`, greater than 43.1 µg/mL.
The molecule `CC(=O)Nc1nc2c(C)cc(NC(=O)C3CCCCC3)cc2s1` had a kinetic solubility of 0.7 µg/mL (≈ 2.11 µM).
The molecule `COc1ccc(-n2nc(C)cc2Nc2ccccc2C(=O)O)cc1` registered a kinetic solubility greater than 48.5 µg/mL.
As for `CCC(C(=O)NC1CC(C)(C)NC(C)(C)C1)c1ccccc1` (centres undefined), the kinetic solubility is greater than 45.4 µg/mL.
The same measure for `CC(C)CC(=O)c1c[nH]c(C(=O)NCc2ccccc2)c1`: 1.6 µg/mL (≈ 5.63 µM).
For `COC(=O)c1ccc(S(=O)(=O)c2ccc(Cl)cc2)c(N)c1`, the kinetic solubility came to 1.2 µg/mL (≈ 3.68 µM).
The same measure for `CCC(C)[C@H](NC(=O)NCc1ccc(OC)c(OC)c1)C(=O)O` (some centres undefined): 39.9 µg/mL (≈ 123 µM); for `O=C(Nc1nc2ccccc2[nH]1)c1ccccc1OC(F)F`: 8.9 µg/mL (≈ 29.3 µM).
For `Cc1cc(Sc2nc(N(C)C)nc(N(C)C)n2)nc(Cl)n1` the value was 1 µg/mL (≈ 3.07 µM).
In the case of `COc1ccc(NS(=O)(=O)c2cc(N)ccc2N2CCOCC2)cc1`, the kinetic solubility was 13.2 µg/mL (≈ 36.3 µM).
The molecule `COc1ccc(N2CCN(C(=O)Cc3ccc(Cl)cc3)CC2)cc1` gave a kinetic solubility of 50.1 µg/mL (≈ 145 µM).
`CC(=O)c1cccc(NC(=S)N2CCCC2)c1` yielded a kinetic solubility greater than 37.3 µg/mL.
Consider `CN(C(=O)c1ccco1)c1nc(-c2ccc(F)cc2)cs1`, for which the kinetic solubility is less than 0.3 µg/mL.
Consider `COC(=O)[C@@H](NC(=O)N1CCC(C)CC1)C(C)C`, for which the kinetic solubility stood at 34 µg/mL (≈ 133 µM).
The molecule `O=C1CC(NC2CCN(C(=O)c3cccc(F)c3)CC2)C(=O)N1` (centres undefined) registered a solubility (kinetic) greater than 47.9 µg/mL.
For `COC(=O)c1ccc(NC(=O)C2CCCN(S(C)(=O)=O)C2)cc1` (centres undefined) the value was 31.8 µg/mL (≈ 93.4 µM); for `CCOc1ccccc1Nc1nnc(SCC(=O)N(C)C2CCS(=O)(=O)C2)s1` (centres undefined), greater than 66.4 µg/mL.
In turn, `COc1ccc(/C=C/C(=O)NC(=S)N2CCCCC2)cc1OC` gave a solubility (kinetic) greater than 50.2 µg/mL.
As to `CCNS(=O)(=O)c1ccc(CCC(=O)NCc2cccnc2)cc1`, the solubility (kinetic) is 35.6 µg/mL (≈ 102 µM).
Take `CCCn1c(C(O)c2cccc(OC)c2)nc2ccccc21` (centres undefined): the kinetic solubility was 39.4 µg/mL (≈ 133 µM).
The molecule `COc1ccccc1NC(=O)C1CCN(C(=O)c2ccco2)CC1` came in with a kinetic solubility greater than 49.3 µg/mL.
